By IC50 is commonly meant the concentration that gives 50% inhibition.

This assay has as its target T1, Recombinant Human ENPP-2/Autotaxin (Homo sapiens, UniProt Q13822).
T1 construct: purchased R&D systems 5255-EN
Description: LysoPLD activity measurement (autotaxin enzyme inhibition, choline release, TOOS reagent). It counts as biochemical. Conditions: LysoPLD inhibitory activity; substrate 14:0 LysoPC; absorbance at 555 nm. In outline: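 Autotaxin lysoPLD activity was read as choline released from 14:0 LysoPC, detected by TOOS reagent absorbance. Compound was preincubated 30 min, then substrate diluted to 300 μM was added and the reaction ran 90 minutes at 37° C. Controls contained 1% DMSO.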

SMILES strings stand for the structures. A value given as a limit tells only on which side of the number the result lay.

Regarding `CN(C)c1ccc(-n2c(=O)n(C3(c4cc(F)cc(C(=O)O)c4)CC3)c3ncc(Cl)cc32)cc1` [Example 271, 3-(1-(6-chloro-1-(4-(dimethylamino)phenyl)-2-oxo-1,2-dihydro-3H-imidazo[4,5-b]pyridin-3-yl)cyclopropyl)-5-fluorobenzoic acid], the IC50 is less than 10 nM.
In the case of `CCCn1cc(-n2c(=O)n(Cc3cccc(C(=O)O)c3)c3ccc(Cl)cc32)cn1` [Example 84, 3-((5-chloro-2-oxo-3-(1-propyl-1H-pyrazol-4-yl)-2,3-dihydro-1H-benzo[d]imidazol-1-yl)methyl)benzoic acid] it was 100 to 1000 nM; in that of `CC1(C)OCc2cc(-n3c(=O)n(C4(c5cc(F)cc(C(=O)O)c5)CC4)c4ccc(Cl)cc43)ccc21` [Example 252, 3-(1-(5-chloro-3-(1,1-dimethyl-1,3-dihydroisobenzofuran-5-yl)-2-oxo-2,3-dihydro-1H-benzo[d]imidazol-1-yl)cyclopropyl)-5-fluorobenzoic acid], less than 10 nM; in that of `CCCn1cc(-n2c(=O)n(Cc3cccc(C(=O)O)c3F)c3ccc(Cl)c(F)c32)cn1` [Example 92, 3-((5-chloro-4-fluoro-2-oxo-3-(1-propyl-1H-pyrazol-4-yl)-2,3-dihydro-1H-benzo[d]imidazol-1-yl)methyl)-2-fluorobenzoic acid], 10 to 100 nM.
With `CC(C)(CO)c1ccc(-n2c(=O)n(C3(c4cccc(C(=O)O)c4)CC3)c3ccc(Cl)cc32)cc1` [Example 218, 3-(1-(5-chloro-3-(4-(1-hydroxy-2-methylpropan-2-yl)phenyl)-2-oxo-2,3-dihydro-1H-benzo[d]imidazol-1-yl)cyclopropyl)benzoic acid] the figure was less than 10 nM; with `O=C(O)c1cccc(C2(n3c(=O)n(-c4ccc(C(=O)N5CC(O)C5)cc4)c4cc(Cl)cnc43)CC2)c1` [Example 224, 3-(1-(6-chloro-1-(4-(3-hydroxyazetidine-1-carbonyl)phenyl)-2-oxo-1,2-dihydro-3H-imidazo[4,5-b]pyridin-3-yl)cyclopropyl)benzoic acid], less than 10 nM; with `O=C(O)c1cccc(C2(n3c(=O)n(-c4ccc(C(=O)N5CC6(COC6)C5)cc4)c4cc(Cl)cnc43)CC2)c1F` [Example 233, 3-(1-(1-(4-(2-oxa-6-azaspiro[3.3]heptane-6-carbonyl)phenyl)-6-chloro-2-oxo-1,2-dihydro-3H-imidazo[4,5-b]pyridin-3-yl)cyclopropyl)-2-fluorobenzoic acid], 10 to 100 nM.
With `CN(C)c1ccc(-n2c(=O)n(Cc3cc(F)cc(C(=O)O)c3)c3c(F)cc(Cl)cc32)cc1` [Example 65, 3-((5-chloro-3-(4-(dimethylamino)phenyl)-7-fluoro-2-oxo-2,3-dihydro-1H-benzo[d]imidazol-1-yl)methyl)-5-fluorobenzoic acid] the figure was 10 to 100 nM.
For the compound `CS(=O)(=O)Nc1ccc(-n2c(=O)n(Cc3cccc(C(=O)O)c3)c3ccc(Cl)cc32)cc1` [Example 19, 3-((5-chloro-3-(4-(methylsulfonamido)phenyl)-2-oxo-2,3-dihydro-1H-benzo[d]imidazol-1-yl)methyl)benzoic acid], the IC50 is 10 to 100 nM.
In the case of `O=C(O)c1cccc(C2(n3c(=O)n(-c4ccc(C5CCOCC5)cc4)c4cc(Cl)ccc43)CC2)c1F` [Example 106, 3-(1-(5-chloro-2-oxo-3-(4-(tetrahydro-2H-pyran-4-yl)phenyl)-2,3-dihydro-1H-benzo[d]imidazol-1-yl)cyclopropyl)-2-fluorobenzoic acid] it was less than 10 nM.
As to `O=C(O)c1cccc(C2(n3c(=O)n(-c4ccc(C(=O)N5CCC(F)(F)CC5)cc4)c4cc(Cl)ccc43)CC2)c1` [Example 131, 3-(1-(5-chloro-3-(4-(4,4-difluoropiperidine-1-carbonyl)phenyl)-2-oxo-2,3-dihydro-1H-benzo[d]imidazol-1-yl)cyclopropyl)benzoic acid], the IC50 was less than 10 nM.
In the case of `COC1CCN(C(=O)c2ccc(-n3c(=O)n(Cc4cccc(C(=O)O)c4)c4ccc(Cl)cc43)cc2)C1` (centres unmarked) [Example 59, 3-((5-chloro-3-(4-(3-methoxypyrrolidine-1-carbonyl)phenyl)-2-oxo-2,3-dihydro-1H-benzo[d]imidazol-1-yl)methyl)benzoic acid] it was 10 to 100 nM; in that of `CCCn1cc(-c2ccc(-n3c(=O)n(C4(c5cccc(C(=O)O)c5)CC4)c4ncc(Cl)cc43)cc2)cn1` [Example 270, 3-(1-(6-chloro-2-oxo-1-(4-(1-propyl-1H-pyrazol-4-yl)phenyl)-1,2-dihydro-3H-imidazo[4,5-b]pyridin-3-yl)cyclopropyl)benzoic acid], less than 10 nM; in that of `O=C(O)c1cccc(Cn2c(=O)n(-c3ccc(-c4ccc(Cl)cc4)cc3)c3cc(Cl)ccc32)c1` [Example 7, 3-((5-chloro-3-(4′-chloro-[1,1′-biphenyl]-4-yl)-2-oxo-2,3-dihydro-1H-benzo[d]imidazol-1-yl)methyl)benzoic acid], 100 to 1000 nM.
In the case of `O=C(O)c1cccc(C2(n3c(=O)n(-c4ccc(C5=CCOCC5)cc4)c4cc(Cl)ccc43)CC2)c1F` [Example 122, 3-(1-(5-chloro-3-(4-(3,6-dihydro-2H-pyran-4-yl)phenyl)-2-oxo-2,3-dihydro-1H-benzo[d]imidazol-1-yl)cyclopropyl)-2-fluorobenzoic acid] it was less than 10 nM.
In the case of `CC(C)n1cc(-n2c(=O)n(Cc3cccc(C(=O)O)c3)c3ccc(Cl)cc32)cn1` [Example 89, 3-((5-chloro-3-(1-isopropyl-1H-pyrazol-4-yl)-2-oxo-2,3-dihydro-1H-benzo[d]imidazol-1-yl)methyl)benzoic acid] it was 100 to 1000 nM; in that of `CC(=O)N1CCC2(CC1)CN(c1ccc(-n3c(=O)n(C4(c5cccc(C(=O)O)c5)CC4)c4ccc(Cl)cc43)cc1)C2` [Example 186, 3-(1-(3-(4-(7-acetyl-2,7-diazaspiro[3.5]nonan-2-yl)phenyl)-5-chloro-2-oxo-2,3-dihydro-1H-benzo[d]imidazol-1-yl)cyclopropyl)benzoic acid], less than 10 nM; in that of `O=C(O)c1cc(F)cc(Cn2c(=O)n(-c3ccccc3)c3cc(Cl)ccc32)c1` [Example 34, 3-((5-chloro-2-oxo-3-phenyl-2,3-dihydro-1H-benzo[d]imidazol-1-yl)methyl)-5-fluorobenzoic acid], 100 to 1000 nM.
On to `O=C(O)c1ccc(F)c(Cn2c(=O)n(-c3ccc(N4CCOCC4)cc3)c3c(F)c(Cl)ccc32)c1` [Example 50, 3-((5-chloro-4-fluoro-3-(4-morpholinophenyl)-2-oxo-2,3-dihydro-1H-benzo[d]imidazol-1-yl)methyl)-4-fluorobenzoic acid], for which the IC50 fell in the range of 10 to 100 nM.
As for `O=C(O)c1cc(F)cc(C2(n3c(=O)n(-c4ccc(N5CC6(COC6)C5)cc4)c4cc(Cl)ccc43)CC2)c1` [Example 191, 3-(1-(3-(4-(2-oxa-6-azaspiro[3.3]heptan-6-yl)phenyl)-5-chloro-2-oxo-2,3-dihydro-1H-benzo[d]imidazol-1-yl)cyclopropyl)-5-fluorobenzoic acid], the IC50 was less than 10 nM.
As to `CC(C)(CF)c1ccc(-n2c(=O)n(C3(c4cccc(C(=O)O)c4)CC3)c3ccc(Cl)cc32)cc1` [Example 219, 3-(1-(5-chloro-3-(4-(1-fluoro-2-methylpropan-2-yl)phenyl)-2-oxo-2,3-dihydro-1H-benzo[d]imidazol-1-yl)cyclopropyl)benzoic acid], the IC50 is less than 10 nM.
With `O=C(O)c1cccc(C2(n3c(=O)n(-c4ccc(C(=O)N5CCCCC5)cc4)c4cc(Cl)ccc43)CC2)c1` [Example 64, 3-(1-(5-chloro-2-oxo-3-(4-(piperidin-1-carbonyl)phenyl)-2,3-dihydro-1H-benzo[d]imidazol-1-yl)cyclopropyl)benzoic acid] the figure was less than 10 nM; with `O=C(O)c1cc(F)cc(C2(n3c(=O)n(-c4ccc(C5CCOC5)cc4)c4cc(Cl)ccc43)CC2)c1` (centres unmarked) [Example 249, 3-(1-(5-chloro-2-oxo-3-(4-(tetrahydrofuran-3-yl)phenyl)-2,3-dihydro-1H-benzo[d]imidazol-1-yl)cyclopropyl)-5-fluorobenzoic acid], less than 10 nM.
With `O=C(O)c1cccc(Cn2c(=O)n(-c3ccc(N4CCOCC4)cc3)c3c(F)c(Cl)ccc32)n1` [Example 52, 6-((5-chloro-4-fluoro-3-(4-morpholinophenyl)-2-oxo-2,3-dihydro-1H-benzo[d]imidazol-1-yl)methyl)picolinic acid] the figure was 10 to 100 nM; with `O=C(O)c1cccc(C2(n3c(=O)n(-c4ccc(N5CCOCC5)cc4)c4cc(Cl)ccc43)CC2)c1` [Example 147, 3-(1-(5-chloro-3-(4-morpholinophenyl)-2-oxo-2,3-dihydro-1H-benzo[d]imidazol-1-yl)cyclopropyl)benzoic acid], less than 10 nM; with `O=C(O)c1cccc(C2(n3c(=O)n(-c4ccc(CN5CCCC5=O)cc4)c4cc(Cl)ccc43)CC2)c1` [Example 236, 3-(1-(5-chloro-2-oxo-3-(4-((2-oxopyrrolidin-1-yl)methyl)phenyl)-2,3-dihydro-1H-benzo[d]imidazol-1-yl)cyclopropyl)benzoic acid], less than 10 nM.
With `O=C(O)c1cccc(C2(n3c(=O)n(-c4ccc(C5(CO)CC5)cc4)c4cc(Cl)ccc43)CC2)c1` [Example 238, 3-(1-(5-chloro-3-(4-(1-(hydroxymethyl)cyclopropyl)phenyl)-2-oxo-2,3-dihydro-1H-benzo[d]imidazol-1-yl)cyclopropyl)benzoic acid], the IC50 is less than 10 nM.
In the case of `O=C(O)c1cccc(C2(n3c(=O)n(-c4ccc(-c5nnc(C6CCOCC6)o5)cc4)c4cc(Cl)ccc43)CC2)c1` [Example 267, 3-(1-(5-chloro-2-oxo-3-(4-(5-(tetrahydro-2H-pyran-4-yl)-1,3,4-oxadiazol-2-yl)phenyl)-2,3-dihydro-1H-benzo[d]imidazol-1-yl)cyclopropyl)benzoic acid], the 50% inhibitory concentration (IC50) was less than 10 nM.
Turning to `O=C(O)c1cccc(Cn2c(=O)n(-c3ccc(C(=O)N4CCC(O)CC4)cc3)c3cc(Cl)ccc32)c1` [Example 61, 3-((5-chloro-3-(4-(4-hydroxypiperidin-1-carbonyl)phenyl)-2-oxo-2,3-dihydro-1H-benzo[d]imidazol-1-yl)methyl)benzoic acid], the IC50 was less than 10 nM.
